Data published in patent publication US7851505B2, “Thiotungstate analogues and uses thereof” (priority 2003, dated 2010).
Values joined by “and” are separate entries in the source; they are usually repeats but may differ in a detail not shown here. Equal values may be shown once. Read-outs that look alike come from different tables or passages of the source.

Assays:
[1] = Moisture stability of tetrathiotungstate salts; format: physicochemical
[2] = Copper-binding ability: inhibition of cysteine autooxidation; format: biochemical; conditions: 100 μM Cys, 100 μM coumarin-3-carboxylic acid, 100 μM CuSO4
Experimental: The copper-binding ability of tetrathiotungstate salts was determined according to the ability of tetrathiotungstate salts to inhibit cysteine autooxidation as reported in Table 2 below.

[3] = tested on: angiogenesis; assay: Matrigel plug assay (inhibition of angiogenesis); format: in vivo, athymic nude mice; conditions: FIG. 1
Experimental: This assay is performed essentially as described by Passaniti et al., Lab Invest. 1992, 67:519-528. Ice-cold Matrigel® (e.g., 500 μL) (Collaborative Biomedical Products, Inc., Bedford, Mass.) is mixed with heparin (e.g., 50 μg/ml), FGF-2 (e.g., 400 ng/ml) and the compound to be tested. In some assays, bFGF may be substituted with tumor cells as the angiogenic stimulus. The Matrigel® mixture is injected subcutaneously into 4-8 week-old athymic nude mice at sites near the abdominal midline, preferably 3 injections per mouse. The injected Matrigel®b forms a palpable solid gel. […] Hemoglobin (Hb) levels are determined using Drabkin's solution (e.g., obtained from Sigma) according to the manufacturers' instructions. […] The amount of fluorescence in the dispersed plug which is determined fluorimetrically serves as a measure of angiogenesis in the plug. […]
Ammonium tetrathiotungstate was assayed in the Matrigel® plug assay as described in Section 5.4.7, supra. Two positive controls were used with positive control 1 measured five days after implantation when treatment began and […] measured five days after implantation when treatment ended. Two negative controls were used with negative control 1 measured five days after implantation when treatment began and […] measured five days after implantation when treatment ended.

[4] = room temperature, 95% relative humidity, two weeks, purity by absorbance, * = partially soluble, ‡ = average of 2 data points

| Compound | % degradation [1] [%] | % inhibition ([2]; inhibitor concentration 1 μM) [%] | % inhibition ([2]; inhibitor concentration 10 μM) | % inhibition ([2]; inhibitor concentration 50 μM) | % degradation [1, 4] | inhibition of angiogenesis [3] |
| --- | --- | --- | --- | --- | --- | --- |
| C[N+](C)(C)CCO.C[N+](C)(C)CCO.[S]=[Mo](=[S])([S-])[S-] [Tetrathiomolybdate, bis (choline), reference compound] | 36 ± 2 | – | – | – | – | – |
| [NH4+].[NH4+].[SH-].[SH-].[S]=[Mo]=[S] [Tetrathiomolybdate, bis(ammonium), reference compound] | – | 68.48 | 87.71% and 76.69% | 94.24% | – | – |
| C[N+]1(C)CCCC1.C[N+]1(C)CCCC1.[S]=[W](=[S])([S-])[S-] [Tetrathiotungstate, bis(1,1-dimethylpyrrolidinium)] | – | – | – | – | 0.04% | – |
| Cc1cc[n+](C)cc1.Cc1cc[n+](C)cc1.[S]=[W](=[S])([S-])[S-] [Tetrathiotungstate, bis(1,4-dimethylpyridinium)] | – | – | – | 89.98% and 89.66% | 2.0% | – |
| C[n+]1ccccc1C=NO.C[n+]1ccccc1C=NO.[S]=[W](=[S])([S-])[S-] [Tetrathiotungstate, bis(2-hydroxyiminomethyl-1-methyl-pyridinium)] | – | – | – | 91.15% | 5.6% | – |
| CC(=O)OC(C)C[N+](C)(C)C.CC(=O)OC(C)C[N+](C)(C)C.[S]=[W](=[S])([S-])[S-] (stereo not drawn) [Tetrathiotungstate, bis(acetyl-β-methylcholine)] | – | – | – | 90.40% | 4.2% | – |
| CC(=O)OCC[N+](C)(C)C.CC(=O)OCC[N+](C)(C)C.[S]=[W](=[S])([S-])[S-] [Tetrathiotungstate, bis(acetylcholine)] | 2.4 | – | – | 90.36% | – | – |
| C[N+](C)(C)Cc1ccccc1.C[N+](C)(C)Cc1ccccc1.[S]=[W](=[S])([S-])[S-] [Tetrathiotungstate, bis(benzzyltrimethylammonium)] | – | – | – | 94.62% | 0.41% | – |
| C[N+](C)(C)CCO.C[N+](C)(C)CCO.[S]=[W](=[S])([S-])[S-] [Tetrathiotungstate, bis(choline)] | 3.0 | – | – | 92.54% and 91.99% | – | – |
| CCn1cc[n+](C)c1.CCn1cc[n+](C)c1.[S]=[W](=[S])([S-])[S-] [Tetrathiotungstate, bis(l-ethyl-3-methyl-1H-imidazolium)] | – | – | – | 91.16% | 1.3% | – |
| CC[N+](CC)(CC)c1ccccc1.CC[N+](CC)(CC)c1ccccc1.[S]=[W](=[S])([S-])[S-] [Tetrathiotungstate, bis(triethylphenyl ammonium)] | – | – | – | 91.32% | −0.12% | – |
| C[N+](C)(C)c1ccccc1.C[N+](C)(C)c1ccccc1.[S]=[W](=[S])([S-])[S-] [Tetrathiotungstate, bis(trimethylphenylammonium)] | – | – | – | 91.53% | −0.46% | – |
| C[N+](C)(C)CCOC(=O)CCCCCCC(=O)OCC[N+](C)(C)C.[S]=[W](=[S])([S-])[S-] [Tetrathiotungstate, suberyldicholine] | – | 67.74 | 77.83% | – | 18.4* % | – |
| NCCNCCNCCN [trientine, reference compound] | – | 0.00 | – | 39.71% | – | – |
| Tetrathiotungstate, (succinylcholine) | – | 66.06 | 81.38% | – | 23.3* % | – |
| Tetrathiotungstate, bis(ammonium) [reference compound] | – | – | – | 95.94% | −0.46% | about 34% |
| Tetrathiotungstate, butane-1,4-bis(trimethylammonium) | – | – | 87.32% | 91.75% | – | – |
| Tetrathiotungstate, ethylenebis(trimethylammonium) | – | – | 84.66% | 89.60% | 8.6* % | – |
| Tetrathiotungstate, pentane-1,5-bis(trimethylammonium) | – | – | – | 90.69% | – | – |
| Tetrathiotungstate, propane-1,3-bis(trimethylammonium) | – | – | 85.53% | 92.95% | – | – |
